# Values quoted from earlier work, collected in PubChem BioAssay AID1259409 (Chemical Carcinogenesis Research Information System (CCRIS), 2018).
# Tested on: rodent chemically induced tumor inhibition, incidence and multiplicity
# Experiment: CCRIS tumor inhibitor studies
smiles,measurement,setting,value
Cc1c(C)c2c(c(C)c1O)CC[C@@](C)(CCC[C@H](C)CCC[C@H](C)CCCC(C)C)O2,"tumour outcome (control, treated, inhibition, significance)","Carcinogen: 7,12-DIMETHYLBENZ[A]ANTHRACENE, 57-97-6, Dose [Inhibitor]: 0.2% IN HIGH SATURATED FAT DIET DAILY STARTING 29 D BEFORE CARCINOGEN TREATMENT AND CONTINUING FOR DURATION OF STUDY (ST, Route [Inhibitor]: ORAL, Species: RAT, Strain/Sex: SPRAGUE-DAWLEY/FEMALE, Target Tissue: Type of Lesion: MAMMARY GLAND: ADENOCARCINOMA, Dose [Carcinogen]: 10 MG IN 1 ML STRIPPED CORN OIL ONCE AT 50 D OF AGE, Promoter: NONE USED","65%, 65%, 0%, not calculated"
same,"tumour outcome (control, treated, inhibition, significance)","Carcinogen: 7,12-DIMETHYLBENZ[A]ANTHRACENE, 57-97-6, Dose [Inhibitor]: 0.2% IN LOW FAT DIET DAILY STARTING 29 D BEFORE CARCINOGEN TREATMENT AND CONTINUING FOR DURATION OF STUDY (STUDY DURATIO, Route [Inhibitor]: ORAL, Species: RAT, Strain/Sex: SPRAGUE-DAWLEY/FEMALE, Target Tissue: Type of Lesion: MAMMARY GLAND: ADENOCARCINOMA, Dose [Carcinogen]: 10 MG IN 1 ML STRIPPED CORN OIL ONCE AT 50 D OF AGE, Promoter: NONE USED","35%, 35%, 0%, not calculated"
same,"tumour outcome (control, treated, inhibition, significance)","Carcinogen: 7,12-DIMETHYLBENZ[A]ANTHRACENE, 57-97-6, Dose [Inhibitor]: 0.2% IN LOW FAT DIET THROUGHOUT THE EXPERIMENT, (STUDY DURATION: 32 WK), Route [Inhibitor]: ORAL, Species: RAT, Strain/Sex: SPRAGUE-DAWLEY/FEMALE, Target Tissue: Type of Lesion: MAMMARY GLAND: PARENCHYMAL CELL CARCINOMA, Dose [Carcinogen]: 10 MG IN 1 ML CORN OIL AT 50 D OF AGE ONCE, Promoter: NONE USED","37%, 32%, 14%, not calculated"
same,"tumour outcome (control, treated, inhibition, significance)","Carcinogen: 7,12-DIMETHYLBENZ[A]ANTHRACENE, 57-97-6, Dose [Inhibitor]: 0.2% IN SATURATED FAT DIET THROUGHOUT THE EXPERIMENT, (STUDY DURATION: 32 WK), Route [Inhibitor]: ORAL, Species: RAT, Strain/Sex: SPRAGUE-DAWLEY/FEMALE, Target Tissue: Type of Lesion: MAMMARY GLAND: PARENCHYMAL CELL CARCINOMA, Dose [Carcinogen]: 10 MG IN 1 ML CORN OIL AT 50 D OF AGE ONCE, Promoter: NONE USED","67%, 65%, 3%, not calculated"
same,"tumour outcome (control, treated, inhibition, significance)","Carcinogen: 7,12-DIMETHYLBENZ[A]ANTHRACENE, 57-97-6, Dose [Inhibitor]: 43 UG IN 80 µL ACETONE ONCE APPLIED ON BACK 5 MIN PRIOR TO CARCINOGEN DOSE (STUDY DURATION: 4 MO), Route [Inhibitor]: DERMAL, Species: MOUSE, Strain/Sex: ICR/FEMALE, Target Tissue: Type of Lesion: SKIN: TUMOR, Dose [Carcinogen]: 25 UG IN 80 µL ACETONE APPLIED ON BACK, Promoter: CROTON OIL, 8001-28-3","29/30 (97%), 27/30 (90%), 7%, not significant"
same,"tumour outcome (control, treated, inhibition, significance)","Carcinogen: 7,12-DIMETHYLBENZ[A]ANTHRACENE;57-97-6, Dose [Inhibitor]: 200 MG IN 1 ML OLIVE OIL ONCE 1 HR PRIOR TO CARCINOGEN DOSE(STUDY DURATION: 18 WK), Route [Inhibitor]: GAVAGE, Species: RAT, Strain/Sex: SPRAGUE-DAWLEY/FEMALE, Target Tissue: Type of Lesion: MAMMARY GLAND: TUMOR, Dose [Carcinogen]: 12 MG IN 1 ML OLIVE OIL ADMINISTERED 1 HR AFTER INHIBITOR, Promoter: NONE USED","27/34 (80%), 10/18 (56%), 30%, not significant"
same,"tumour outcome (control, treated, inhibition, significance)","Carcinogen: 7,12-DIMETHYLBENZ[A]ANTHRACENE, 57-97-6, Dose [Inhibitor]: 1000 UG APPLIED ONCE 5 MIN PRIOR TO CARCINOGEN DOSE (STUDY DURATION: 28 WK), Route [Inhibitor]: DERMAL, Species: MOUSE, Strain/Sex: CD-1/FEMALE, Target Tissue: Type of Lesion: SKIN: PAPILLOMA, Dose [Carcinogen]: 2.56 UG APPLIED ONCE 5 MIN AFTER INHIBITOR, Promoter: 12-O-TETRADECANOYLPHORBOL-13-ACETATE, 16561-29-8","82%, 68%, 17%, not calculated"
same,"tumour outcome (control, treated, inhibition, significance)","Carcinogen: METHYL(ACETOXYMETHYL)NITROSAMINE, 56856-83-8, Dose [Inhibitor]: 0, 5.8 NMOL IN DRINKING WATER BEGINNING 2 WK PRIOR TO CARCINOGEN AND CONTINUED FOR STUDY DURATION, (STUDY DURATION: 13 M, Dose [Inhibitor]: 0, 5.8 NMOL IN DRINKING WATER BEGINNING 2 WK PRIOR TO CARCINOGEN AND CONTINUED FOR STUDY DURATION, (STUDY DURATION: 13 M, Route [Inhibitor]: ORAL, Species: HAMSTER, Strain/Sex: SYRIAN/FEMALE, Target Tissue: Type of Lesion: ORAL CAVITY: TUMOR, Dose [Carcinogen]: 2 MG/KG BW IN DISTILLED WATER TO RIGHT CHEEK POUCH 2/MO FOR 6 MO (TOTAL DOSE 24 MG/KG), Promoter: NONE USED","14/15 (93%), 1/15 (7%), 92%, p<0.001"
same,"tumour outcome (control, treated, inhibition, significance)","Carcinogen: N-BIS(2-HYDROXYPROPYL)NITROSAMINE, 53609-64-6, Dose [Inhibitor]: 0, 1% IN DIET FOR 30 WK BEGINNING POST CARCINOGEN TREATMENT (STUDY DURATION: 32 WK), Route [Inhibitor]: ORAL, Species: RAT, Strain/Sex: F344/MALE, Target Tissue: Type of Lesion: BLADDER: ADENOMA, Dose [Carcinogen]: 0.1% IN DRINKING WATER FOR 2 WK, Promoter: NONE USED","5%, 15%, -200%, not calculated"
same,"tumour outcome (control, treated, inhibition, significance)","Carcinogen: N-BIS(2-HYDROXYPROPYL)NITROSAMINE, 53609-64-6, Dose [Inhibitor]: 0, 1% IN DIET FOR 30 WK BEGINNING POST CARCINOGEN TREATMENT (STUDY DURATION: 32 WK), Route [Inhibitor]: ORAL, Species: RAT, Strain/Sex: F344/MALE, Target Tissue: Type of Lesion: KIDNEY: TUMOR, Dose [Carcinogen]: 0.1% IN DRINKING WATER FOR 2 WK, Promoter: NONE USED","10%, 20%, -100%, not calculated"
